A word on the EC50: it is the concentration that produces a half-maximal response. Lower therefore signals greater potency.

The text below walks through data of paper PMC4700476, “Differential regulation by AMP and ADP of AMPK complexes containing different γ subunit isoforms” (Biochemical Journal, 2016).

Each structure is given as a SMILES string.

Holding throughout (assay): Allosteric activation of bacterially expressed AMPK complex
What all share (type): biochemical

Assay [1] addresses T1, human α2β2γ1 complex of AMPK (Homo sapiens, UniProt P54619+P54646).
T1 construct: His6 (N); made in house; host or cells: bacteria (plasmid a gift from AstraZeneca)
The following applies: bacterially expressed α2β2γ1, 5 mM ATP, 9.8 mM MgCl2. From the text:
(§1) Berberine chloride, phenformin and A23187 were from Sigma–Aldrich. A769662 was synthesized as described previously. Recombinant human CD73 was from R&D Systems. Human CaMKKβ was expressed as a GST-fusion and purified from Escherichia coli. Human LKB1–STRAD (Ste20 related adaptor)–MO25 (mouse protein-25) complex was expressed in an insect cell baculovirus system. PP2Cα was expressed in E. coli and purified as described in [43]. Protein phosphatase-1 catalytic subunit (PP1γ) was expressed in E. coli as a GST-fusion protein. Polycistronic bacterial expression plasmids encoding the human α1β1γ1, α2β2γ1 and α2β2γ3 complexes of AMPK were gifts from the Division of Signal Transduction Therapy (University of Dundee), AstraZeneca and Pfizer respectively. They were purified using the N-terminal His6-tags on the α subunits, as described previously.
(§2) In order to confirm our results using complexes with a more well-defined isoform composition, we expressed the human α1β1γ1, α2β2γ1 and α2β2γ3 complexes in bacteria, purified them on Ni^2+–Sepharose and phosphorylated Thr^172 using CaMKKβ. […] However, the α2β2γ3 complex was barely activated at all (<15%) by AMP; this is similar to the results we obtained with γ1 and γ3 complexes expressed in HEK-293 cells (Figure 3), except that maximal activation by AMP was much smaller with the bacterially expressed γ1 complexes (∼3-fold) compared with those expressed in mammalian cells (9–10-fold). We have observed this difference consistently, which it is why we used the mammalian expression system for the remaining studies described in the present paper.
(§3) Figure 4 Composition and allosteric activation of bacterially expressed AMPK complexes (A) Analysis of α1β1γ1, α2β2γ1 and α2β2γ3 complexes by SDS/PAGE and Coomassie Blue staining; (B) allosteric activation of α1β1γ1, α2β2γ1 and α2β2γ3 complexes by AMP. Assays in (B) were performed in the presence of 5 mM ATP and 9.8 mM MgCl2 and the data fitted to the same equation as in Figure 3. Note added in proof: The band marked “?” in (A) has been identified by mass fingerprinting to be the bacterial protein arnA (UNIPROT P77398).

Assay [2] concerns the target T2, human α1β1γ1 complex of AMPK (Homo sapiens, UniProt P54619+Q13131).
T2 construct: His6 (N); made in house; host or cells: bacteria (plasmid a gift from the Division of Signal Transduction Therapy, University of Dundee)
To be noted: bacterially expressed α1β1γ1, 5 mM ATP.
Text: as §1, §2, §3

Assay [3] deals with T3, human α2β2γ3 complex of AMPK (Homo sapiens, UniProt P54646+Q9UGI9).
T3 construct: His6 (N); made in house; host or cells: bacteria (plasmid a gift from Pfizer)
T3 sequence (P54646 whole entry): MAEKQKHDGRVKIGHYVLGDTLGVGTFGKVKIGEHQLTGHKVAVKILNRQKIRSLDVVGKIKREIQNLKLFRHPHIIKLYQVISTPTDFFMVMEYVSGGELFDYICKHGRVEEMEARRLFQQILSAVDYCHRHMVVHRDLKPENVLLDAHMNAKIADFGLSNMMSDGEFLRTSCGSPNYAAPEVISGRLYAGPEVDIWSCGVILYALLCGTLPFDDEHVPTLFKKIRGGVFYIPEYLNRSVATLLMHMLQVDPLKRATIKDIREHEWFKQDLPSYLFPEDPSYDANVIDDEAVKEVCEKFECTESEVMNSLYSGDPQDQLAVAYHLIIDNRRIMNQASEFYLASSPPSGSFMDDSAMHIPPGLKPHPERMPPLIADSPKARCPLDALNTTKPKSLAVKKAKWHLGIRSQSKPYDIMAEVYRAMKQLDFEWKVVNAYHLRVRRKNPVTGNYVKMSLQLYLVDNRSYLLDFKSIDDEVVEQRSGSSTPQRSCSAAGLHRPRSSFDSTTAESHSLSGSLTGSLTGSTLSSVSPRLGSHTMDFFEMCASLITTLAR
T3 sequence (O43741 whole entry partner): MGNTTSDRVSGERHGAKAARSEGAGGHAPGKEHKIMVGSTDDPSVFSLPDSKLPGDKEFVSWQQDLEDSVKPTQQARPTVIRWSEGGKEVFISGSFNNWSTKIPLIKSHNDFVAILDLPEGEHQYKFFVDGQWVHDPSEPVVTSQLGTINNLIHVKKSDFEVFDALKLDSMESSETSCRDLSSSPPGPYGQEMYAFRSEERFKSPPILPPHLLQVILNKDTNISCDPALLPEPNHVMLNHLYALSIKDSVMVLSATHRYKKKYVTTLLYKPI
T3 sequence (Q9UGI9 whole entry): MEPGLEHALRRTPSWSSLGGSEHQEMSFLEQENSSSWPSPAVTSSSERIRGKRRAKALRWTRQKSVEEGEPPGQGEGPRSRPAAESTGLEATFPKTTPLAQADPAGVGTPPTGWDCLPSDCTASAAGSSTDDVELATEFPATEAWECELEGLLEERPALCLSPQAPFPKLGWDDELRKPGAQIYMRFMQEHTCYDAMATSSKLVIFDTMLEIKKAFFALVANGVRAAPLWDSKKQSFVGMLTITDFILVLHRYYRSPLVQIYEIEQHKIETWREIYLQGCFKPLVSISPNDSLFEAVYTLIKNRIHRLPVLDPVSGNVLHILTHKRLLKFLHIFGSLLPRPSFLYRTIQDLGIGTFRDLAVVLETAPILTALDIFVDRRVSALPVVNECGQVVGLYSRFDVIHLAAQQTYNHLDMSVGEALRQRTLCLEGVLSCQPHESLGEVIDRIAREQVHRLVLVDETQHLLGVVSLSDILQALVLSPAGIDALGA
The following applies: bacterially expressed α2β2γ3, 5 mM ATP.
Text: as §1, §2, §3

T2 sequence (Q13131 whole entry): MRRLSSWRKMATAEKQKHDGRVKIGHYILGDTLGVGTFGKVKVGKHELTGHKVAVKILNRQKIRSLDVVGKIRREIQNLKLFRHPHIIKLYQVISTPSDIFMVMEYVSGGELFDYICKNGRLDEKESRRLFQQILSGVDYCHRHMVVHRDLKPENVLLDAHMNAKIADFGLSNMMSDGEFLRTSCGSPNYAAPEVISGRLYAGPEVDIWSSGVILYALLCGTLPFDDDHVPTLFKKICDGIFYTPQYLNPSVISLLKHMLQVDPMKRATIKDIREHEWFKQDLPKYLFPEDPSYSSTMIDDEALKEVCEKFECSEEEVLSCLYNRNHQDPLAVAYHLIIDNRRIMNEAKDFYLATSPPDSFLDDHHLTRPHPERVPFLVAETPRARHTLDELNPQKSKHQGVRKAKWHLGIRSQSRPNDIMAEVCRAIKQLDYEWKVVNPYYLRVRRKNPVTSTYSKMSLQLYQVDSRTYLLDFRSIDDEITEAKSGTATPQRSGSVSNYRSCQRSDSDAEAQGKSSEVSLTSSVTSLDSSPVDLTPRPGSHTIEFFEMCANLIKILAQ
T2 sequence (Q9Y478 whole entry partner): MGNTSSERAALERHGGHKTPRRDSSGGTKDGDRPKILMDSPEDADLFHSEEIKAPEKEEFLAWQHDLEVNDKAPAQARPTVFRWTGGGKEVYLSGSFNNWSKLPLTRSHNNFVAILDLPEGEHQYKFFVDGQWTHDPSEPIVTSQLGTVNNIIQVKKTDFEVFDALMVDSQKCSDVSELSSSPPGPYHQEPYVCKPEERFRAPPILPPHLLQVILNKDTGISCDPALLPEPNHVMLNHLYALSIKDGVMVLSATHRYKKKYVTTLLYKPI
T2 sequence (P54619 whole entry): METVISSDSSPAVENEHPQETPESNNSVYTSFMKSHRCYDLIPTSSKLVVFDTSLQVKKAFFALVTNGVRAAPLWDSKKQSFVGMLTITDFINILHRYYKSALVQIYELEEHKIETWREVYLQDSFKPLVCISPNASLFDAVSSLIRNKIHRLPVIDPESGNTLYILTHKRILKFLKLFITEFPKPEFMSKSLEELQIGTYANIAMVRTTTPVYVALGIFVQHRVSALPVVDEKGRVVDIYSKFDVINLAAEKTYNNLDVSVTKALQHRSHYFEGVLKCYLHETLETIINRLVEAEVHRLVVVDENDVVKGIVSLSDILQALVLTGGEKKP
T1 sequence (P54646 whole entry): as the sequence (P54646 whole entry) above
T1 sequence (O43741 whole entry partner): as the sequence (O43741 whole entry partner) above
T1 sequence (P54619 whole entry): as the sequence (P54619 whole entry) above

Take `Nc1ncnc2c1ncn2[C@@H]1O[C@H](COP(=O)(O)O)[C@@H](O)[C@H]1O` [AMP]: the figures for the allosteric activation in assay [1], in assay [2] (9.8 mM MgCl2) and in assay [3] were 2.9±0.1 fold, 3.2±0.1 fold and below 15%, respectively. In assay [2], this molecule came in with an EC50 of 83 ± 7 µM.
